Assay results from ChEMBL document CHEMBL1143059, “Structure-based design, synthesis and preliminary evaluation of selective inhibitors of dihydrofolate reductase from Mycobacterium tuberculosis” (Bioorg Med Chem, 2007).

Columns and labels:
[1] = molecular target: T1, Dihydrofolate reductase (Saccharomyces cerevisiae S288c) (UniProt P07807)
T1 sequence (whole entry): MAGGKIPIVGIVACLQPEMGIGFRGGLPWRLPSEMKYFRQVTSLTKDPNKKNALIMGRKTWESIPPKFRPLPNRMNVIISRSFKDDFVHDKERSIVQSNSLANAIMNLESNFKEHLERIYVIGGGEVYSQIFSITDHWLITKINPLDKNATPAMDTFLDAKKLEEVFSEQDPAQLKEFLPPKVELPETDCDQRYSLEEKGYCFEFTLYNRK
Description: Inhibition of yeast DHFR expressed in Saccharomyces cerevisiae TB5 assessed as yeast growth inhibition by after 3 days by radial spoke assay

[2] = molecular target: T2, Dihydrofolate reductase (Homo sapiens) (UniProt P00374)
T2 sequence (whole entry): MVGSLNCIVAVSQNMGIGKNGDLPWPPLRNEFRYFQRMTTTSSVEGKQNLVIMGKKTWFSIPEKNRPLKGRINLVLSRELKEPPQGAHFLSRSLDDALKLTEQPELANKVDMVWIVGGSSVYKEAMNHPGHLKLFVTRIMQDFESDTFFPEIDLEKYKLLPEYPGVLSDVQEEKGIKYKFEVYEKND
Description: Inhibition of human DHFR expressed in Saccharomyces cerevisiae TB5 assessed as yeast growth inhibition after 3 days by radial spoke assay

[3] = molecular target: T3, Dihydrofolate reductase (Mycobacterium tuberculosis) (UniProt P9WNX1)
T3 sequence (whole entry): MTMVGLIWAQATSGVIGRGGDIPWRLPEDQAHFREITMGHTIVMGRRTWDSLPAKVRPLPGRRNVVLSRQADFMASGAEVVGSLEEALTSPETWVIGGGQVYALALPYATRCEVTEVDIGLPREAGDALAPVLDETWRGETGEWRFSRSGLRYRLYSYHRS
Description: Inhibition of Mycobacterium tuberculosis DHFR expressed in Saccharomyces cerevisiae TB5 assessed as yeast growth inhibition after 3 days by radial spoke assay

## Nc1nc(N)c(-c2ccc(Br)cc2)c([C@H](O)[C@H](O)CO)n1
[1]
  IZ: 5 mm
[2]
  IZ: 5 mm
[3]
  IZ: 5 mm

## Nc1nc(N)c(-c2ccc(Br)cc2)c(CC[C@H](O)[C@@H](O)CO)n1
[1]
  IZ: 6 mm
[2]
  IZ: 5 mm
[3]
  IZ: 8 mm

## Nc1nc(N)c(-c2ccc(Cl)c(Cl)c2)c([C@H](O)[C@H](O)CO)n1
[1]
  IZ: 7 mm
[2]
  IZ: 8 mm
[3]
  IZ: 8 mm

## Nc1nc(N)c(-c2ccc(Cl)c(Cl)c2)c(CC[C@@H](O)[C@@H](O)CO)n1
[1]
  IZ: 8 mm
[2]
  IZ: 8 mm
[3]
  IZ: 8 mm

## Nc1nc(N)c(-c2ccccc2)c([C@H](O)[C@H](O)CO)n1
[1]
  IZ: 5 mm
[2]
  IZ: 5 mm
[3]
  IZ: 5 mm

## CCc1nc(N)nc(N)c1-c1cccc(Cl)c1
[1]
  IZ: 5 mm
[2]
  IZ: 6 mm
[3]
  IZ: 5 mm

## Nc1nc(N)c(-c2ccccc2)c(CCCCCO)n1
[1]
  IZ: 9 mm
[2]
  IZ: 7 mm
[3]
  IZ: 7 mm

## Nc1nc(N)c(-c2ccc(Cl)cc2)c(CC[C@H](O)[C@@H](O)CO)n1
[1]
  IZ: 6 mm
[2]
  IZ: 7 mm
[3]
  IZ: 7 mm

## Nc1ncc(-c2ccccc2)c(CCc2ccccc2)n1
[1]
  IZ: 5 mm
[2]
  IZ: 5 mm
[3]
  IZ: 5 mm

## Nc1nc(N)c(-c2ccc(Br)cc2)c(CCCCCO)n1
[1]
  IZ: 9 mm
[2]
  IZ: 8 mm
[3]
  IZ: 8 mm

## Nc1nc(N)c(-c2ccc(Br)cc2)c(CC[C@@H](O)[C@@H](O)CO)n1
[1]
  IZ: 8 mm
[2]
  IZ: 6 mm
[3]
  IZ: 7 mm

## Nc1nc(N)c(-c2ccc(Cl)c(Cl)c2)c(CCCCCO)n1
[1]
  IZ: 9 mm
[2]
  IZ: 9 mm
[3]
  IZ: 9 mm

## Nc1nc(N)c(-c2ccc(Cl)cc2)c([C@H](O)[C@H](O)CO)n1
[1]
  IZ: 5 mm
[2]
  IZ: 5 mm
[3]
  IZ: 5 mm

## Nc1nc(N)c(-c2ccccc2)c(CC[C@@H](O)[C@@H](O)CO)n1
[1]
  IZ: 6 mm
[2]
  IZ: 6 mm
[3]
  IZ: 11 mm

## Nc1nc(N)c(-c2ccccc2)c(CC[C@H](O)[C@@H](O)CO)n1
[1]
  IZ: 8 mm
[2]
  IZ: 8 mm
[3]
  IZ: 9 mm

## Nc1nc(N)c(-c2ccc(Cl)cc2)c(CC[C@@H](O)[C@@H](O)CO)n1
[1]
  IZ: 7 mm
[2]
  IZ: 7 mm
[3]
  IZ: 9 mm

## Nc1nc(N)c(-c2ccc(Cl)cc2)c(CCCCCO)n1
[1]
  IZ: 8 mm
[2]
  IZ: 8 mm
[3]
  IZ: 8 mm
